Consider 16 molecules from patent US20220402914A1, “Tryptoline-Based Benzothiazoles and their use as Antibiotics and Antibiotic Resistance-Modifying Agents” (The Regents of the University of Colorado, a body corporate, priority 2019, published 2022).

What is called MIC is the smallest concentration in the dilution series that meets the test's criterion for growth inhibition. The GI50 is the concentration giving 50% growth inhibition. A high value points to lower sensitivity of the cells.

SMILES strings stand for the structures. Values after ≈ are worked out from the molar mass of the structure shown. Structures can show the parent of a compound that is named as a salt. Where two headings read alike, the source gives them in different places.

The subject of series [1] is MRSA ATCC BAA-44. The series can be described thus: Minimal inhibitory concentration (MIC), standard broth microdilution. The class given is cell-based, Staphylococcus aureus. The conditions noted are these: for MIC: MRSA BAA-44 strain. As to the method:
(§1) RMA activity of the analogues was tested by assessing their abilities to sensitize MRSA to the antibiotic cefazolin (a first-generation cephalosporin). The well characterized strain MRSA ATCC BAA-44 was tested as previously described. […] The minimal inhibitory concentration (MIC), or the lowest concentration at which S. aureus is considered susceptible to an antibacterial, was determined by the standard broth microdilution method detailed in the CLSI handbook. RMA activity was compared by the ratio of MIC/MRC. The half growth inhibitory concentration (GI50) of each analogue against HeLa cells was determined as previously described. […] The luminescence of each sample was recorded in an Envision Multilabel Plate Reader (Perkin Elmer). Results of MICs and MRCs were confirmed by testing in triplicate. The GI50 assay was performed in duplicate.
(Dilution methods test growth across graded concentrations, often in twofold steps.)

In series [2] the test system is MRSA ATCC BAA-44. The experiment in a line: Minimum re-sensitizing concentration (MRC) in the presence of cefazolin. The class given is cell-based, Staphylococcus aureus. The conditions noted are these: MRSA BAA-44, cefazolin. As to the method: as §1
In another series the test system is HeLa cells. The experiment in a line: GI50 against HeLa cells, Cell Titer Glo viability assay. The class given is cell-based, human. The conditions noted are these: for GI50: 24 h. On the procedure: as §1
On the technique in general: In ATP-based viability assays light output follows the ATP content of the culture.

Test in series [3]: as above
The conditions noted are these: human, HeLa cells, 24 h. Type of series: cell-based, human. As to the method:
as §1

The next series relates to MRSA-252. The experiment in a line: MIC, scope of antibacterial activity. Type of series: cell-based, S. aureus. The conditions noted are these: Staphylococcus aureus. On the procedure:
as §1
(§2) Furthermore, we explored the scope of the antibacterial activity of 12g in a panel of MRSA and MSSA strains including BAA-44 (MIC=1 μg/mL), MRSA-252 (MIC=2 μg/mL), B. subtilis NR-607 (MIC=2 μg/mL), E. faecium HM-460 (MIC=4 μg/mL), E. faecium 28977 (MIC=2 μg/mL) and MSSA (MIC=0.5 μg/mL).

The test system of a further series is MSSA. The experiment in a line: MIC, scope of antibacterial activity. Type of series: cell-based, S. aureus. The conditions noted are these: Staphylococcus aureus. As to the method:
as §1, §2

In a further series the test system is B. subtilis NR-607. The experiment in a line: MIC, scope of antibacterial activity. Type of series: cell-based. The conditions noted are these: Bacillus subtilis, NR607. As to the method: as §1, §2
The test system of another series is E. faecium 28977. The experiment in a line: MIC, scope of antibacterial activity. Type of series: cell-based. The conditions noted are these: Enterococcus faecium. As to the method:
as §1, §2

The subject of a further series is E. faecium HM-460. The experiment in a line: MIC, scope of antibacterial activity. Type of series: cell-based. The conditions noted are these: Enterococcus faecium, HM460. On the procedure:
as §1, §2

Another series relates to multiple MRSA strains. The experiment in a line: RMA activity in multiple MRSA strains with cephalosporins. Type of series: cell-based, S. aureus. As to the method:
as §1
We next explored the scope of RMA activity of 4ad in different MRSA strains, including MRSA BAA-1683, MRSA BAA-1764, MRSA NR-46411, NRS-384 and NRS-100. These strains were selected because of their diverse geographical origins, genetic background, and resistance profile. We also tested RMA activity in combination with another commercial antibiotic, cefuroxime, which is a second-generation cephalosporin. MRCs in the presence of cefuroxime were determined using the same method as those for cefazolin.

Setting [4] is: Staphylococcus aureus, read-out: MIC.

Turning to `Clc1ccc2[nH]c3c(c2c1)CCN(c1nc2cccc(Cl)c2s1)C3` [Compound 4u, 6-Chloro-2-(7-chloro-1,3-benzothiazol-2-yl)-2,3,4,9-tetrahydro-1H-pyrido[3,4-b]indole], the “MIC (in words)” value with MRSA ATCC BAA-44 [1] (MRSA BAA-44) is “increased MIC”. In addition, the MIC with MRSA ATCC BAA-44 [1] (setting [4]) stood at 4 µg/mL (≈ 10.7 µM). For the same molecule, in the series with MRSA ATCC BAA-44 [2], the “RMA activity (in words)” value is reported as “reduced RMA activity”. In the series with HeLa cells, the GI50 worked out at 6.7 µg/mL (≈ 17.9 µM).
In the case of `FC(F)(F)c1ccc2nc(N3CCc4c([nH]c5ccc(Cl)cc45)C3)sc2c1` [Compound 4s, 6-Chloro-2-[6-(trifluoromethyl)-1,3-benzothiazol-2-yl]-2,3,4,9-tetrahydro-1H-pyrido[3,4-b]indole], the MIC in the series on MRSA ATCC BAA-44 [1] (setting [4]) is greater than 64 µg/mL. The “increase of RMA activity relative to 4a” value with MRSA ATCC BAA-44 [2] came to 4 fold. Further, in the series on HeLa cells, the GI50 was found to be 4.6 µg/mL (≈ 11.3 µM).
As to `Clc1ccc2[nH]c3c(c2c1)CCN(c1nc2ccc(Br)cc2s1)C3` [Compound 4p, 2-(6-Bromo-1,3-benzothiazol-2-yl)-6-chloro-2,3,4,9-tetrahydro-1H-pyrido[3,4-b]indole], the MIC in the series on MRSA ATCC BAA-44 [1] (setting [4]) was greater than 64 µg/mL. For the same molecule, the “RMA activity (in words)” value with MRSA ATCC BAA-44 [2] is listed as “retained the RMA activity”. The molecule also returned a GI50 with HeLa cells of 5.1 µg/mL (≈ 12.2 µM).
In the case of `COC(=O)C1CN(c2nc3ccc(Cl)cc3s2)Cc2[nH]c3ccc(Cl)cc3c21` (racemic) [Compound 4n, Methyl 6-chloro-2-(6-chlorobenzo[d]thiazol-2-yl)-2,3,4,9-tetrahydro-1H-pyrido[3,4-b]indole-4-carboxylate], in the series on MRSA ATCC BAA-44 [1] (setting [4]), the MIC is greater than 32 µg/mL. Besides, in the series with MRSA ATCC BAA-44 [2], the “RMA activity (in words)” value is “without compromising the RMA activity” and the “RMA activity (ratio of MIC/MRC)” value was 32 fold. The molecule further returned a GI50 in the series with HeLa cells of 6.6 µg/mL (≈ 15.3 µM).
In the case of `N=C(N)NCC1CN(c2nc3ccc(Cl)cc3s2)Cc2[nH]c3ccc(Cl)cc3c21` (racemic) [Compound 12g, 1-((6-chloro-2-(6-chlorobenzo[d]thiazol-2-yl)-2,3,4,9-tetrahydro-1H-pyrido[3,4-b]indol-4-yl)methyl)guanidine hydrochloride], the minimum inhibitory concentration (MIC) against MRSA ATCC BAA-44 [1] (hydrochloride) is 1 µg/mL; against MRSA ATCC BAA-44 [1] (Staphylococcus aureus), 2 µg/mL; against MRSA-252, 2 µg/mL; against MSSA it was 0.5 µg/mL; with B. subtilis NR-607, 2 µg/mL; against E. faecium 28977, 2 µg/mL. This molecule also registered an MIC in the series with E. faecium HM-460 of 4 µg/mL. The GI50 at 24 h in series [3] worked out at 14.1 µg/mL.
Turning to `FC(F)(F)c1cccc2sc(N3CCc4c([nH]c5ccc(Cl)cc45)C3)nc12` [Compound 4af, 6-Chloro-2-[4-(trifluoromethyl)-1,3-benzothiazol-2-yl]-2,3,4,9-tetrahydro-1H-pyrido[3,4-b]indole], the minimal inhibitory concentration (MIC) in the series on MRSA ATCC BAA-44 [1] (setting [4]) is greater than 32 µg/mL. In addition, the “RMA activity (in words)” value with MRSA ATCC BAA-44 [2] is on record as “good RMA activities”. In the series on HeLa cells, the “worse GI50 relative to 4w” value turned out to be 3 fold and the GI50 is 8 µg/mL (≈ 19.6 µM).
As for `Clc1ccc2nc(N3CCc4c([nH]c5ccc(Cl)cc45)C3)sc2c1` [Compound 4a, 6-Chloro-2-(6-chloro-1,3-benzothiazol-2-yl)-2,3,4,9-tetrahydro-1H-pyrido[3,4-b]indole], the MIC in the series with MRSA ATCC BAA-44 [1] (setting [4]) was greater than 64 µg/mL. In addition, the “RMA activity (ratio of MIC/MRC)” value with MRSA ATCC BAA-44 [2] is 32 fold. The same molecule gave a GI50 with HeLa cells of 13.2 µg/mL (≈ 35.3 µM).
Consider `Nc1cc(Cl)c2nc(N3CCc4c([nH]c5ccc(Cl)cc45)C3)sc2c1` [Compound 4ad, 4-Chloro-2-(6-chloro-1,3,4,9-tetrahydro-2H-pyrido[3,4-b]indol-2-yl)-1,3-benzothiazol-6-amine], for which, in the series on MRSA ATCC BAA-44 [1], the MIC is greater than 32 µg/mL. Moreover, the “RMA activity (in words)” value with MRSA ATCC BAA-44 [2] was “good RMA activities”. This molecule also had a GI50 in the series with HeLa cells greater than 100 µg/mL. Besides, in the series with multiple MRSA strains (five MRSA strains, cefazolin and cefuroxime), the “potentiation of antibiotics (in words)” value was “potentiates both antibiotic cefazolin and cefuroxime”. Moreover, the “concentration that re-sensitizes multiple MRSA strains to cephalosporins” value in the series on multiple MRSA strains (multiple MRSA strains, cephalosporins) was 2 µg/mL.
Regarding `COC(=O)C1Cc2c([nH]c3ccc(Cl)cc23)CN1c1nc2ccc(Cl)cc2s1` (stereo not drawn) [Compound 4m, Methyl 6-chloro-2-(6-chloro-1,3-benzothiazol-2-yl)-2,3,4,9-tetrahydro-1H-pyrido[3,4-b]indole-3-carboxylate], the MIC with MRSA ATCC BAA-44 [1] (setting [4]) was greater than 64 µg/mL. For the same molecule, the “RMA activity (in words)” value in the series on MRSA ATCC BAA-44 [2] was “abolished”.
As to `O=C(O)C1CN(c2nc3ccc(Cl)cc3s2)Cc2[nH]c3ccc(Cl)cc3c21` (racemic) [Compound 8, 6-Chloro-2-(6-chlorobenzo[d]thiazol-2-yl)-2,3,4,9-tetrahydro-1H-pyrido[3,4-b]indole-4-carboxylic acid], the MIC in the series on MRSA ATCC BAA-44 [1] (setting [4]) stood at 32 µg/mL (≈ 76.5 µM). Moreover, the “RMA activity (in words)” value with MRSA ATCC BAA-44 [2] was “significantly decreased or abolished the RMA activity”. Besides, in the series on HeLa cells, the GI50 was 65 µg/mL (≈ 155 µM).
Regarding `CCn1c2c(c3cc(Cl)ccc31)CCN(c1nc3ccc(Cl)cc3s1)C2` [Compound 4o, 6-Chloro-2-(6-chloro-1,3-benzothiazol-2-yl)-9-ethyl-2,3,4,9-tetrahydro-1H-pyrido[3,4-b]indole], in the series on MRSA ATCC BAA-44 [2], the “RMA activity (in words)” value was “abolished”.
In the case of `CNc1cc(C(F)(F)F)c2nc(N3CCc4c([nH]c5ccc(Cl)cc45)C3)sc2c1` [Compound 4ai, 2-(6-Chloro-1,3,4,9-tetrahydro-2H-pyrido[3,4-b]indol-2-yl)-N-methyl-4-(trifluoromethyl)-1,3-benzothiazol-6-amine], the minimum inhibitory concentration (MIC) with MRSA ATCC BAA-44 [1] (setting [4]) is greater than 32 µg/mL. Further, the “RMA activity (in words)” value in the series with MRSA ATCC BAA-44 [2] was “good RMA activities”. The GI50 in the series with HeLa cells is 15.4 µg/mL (≈ 35.2 µM).
Regarding `FC(F)(F)Oc1ccc2nc(N3CCc4c([nH]c5ccc(Cl)cc45)C3)sc2c1` [Compound 4t, 6-Chloro-2-[6-(trifluoromethoxy)-1,3-benzothiazol-2-yl]-2,3,4,9-tetrahydro-1H-pyrido[3,4-b]indole], the MIC with MRSA ATCC BAA-44 [1] was determined as 1 µg/mL (≈ 2.36 µM). In addition, in the series with MRSA ATCC BAA-44 [2], the “RMA activity (in words)” value is recorded as “lost the RMA activity completely”. This molecule also returned a GI50 with HeLa cells of 7.3 µg/mL (≈ 17.2 µM).
On to `Clc1ccc2[nH]c3c(c2c1)CCN(c1nc2c(Cl)cccc2s1)C3` [Compound 4w, 6-Chloro-2-(4-chloro-1,3-benzothiazol-2-yl)-2,3,4,9-tetrahydro-1H-pyrido[3,4-b]indole], for which, in the series with MRSA ATCC BAA-44 [1] (setting [4]), the MIC is greater than 64 µg/mL. Also, the “RMA activity (in words)” value with MRSA ATCC BAA-44 [2] is given as “maintained similar RMA activity”. This molecule had a GI50 with HeLa cells of 27.7 µg/mL (≈ 74 µM).
In the case of `Clc1ccc2sc(N3CCc4c([nH]c5ccc(Cl)cc45)C3)nc2c1` [Compound 4v, 6-Chloro-2-(5-chloro-1,3-benzothiazol-2-yl)-2,3,4,9-tetrahydro-1H-pyrido[3,4-b]indole], the “RMA activity (in words)” value in the series with MRSA ATCC BAA-44 [2] is “no RMA activity”.
On to `Cc1ccc2nc(N3CCc4c([nH]c5ccc(Cl)cc45)C3)sc2c1` [Compound 4c, 6-Chloro-2-(6-methyl-1,3-benzothiazol-2-yl)-2,3,4,9-tetrahydro-1H-pyrido[3,4-b]indole], for which the “RMA activity (in words)” value in the series on MRSA ATCC BAA-44 [2] is “no RMA activity”.
